The text below walks through data of patent US11382956B2, “Amylin analogues” (Zealand Pharma A/S, priority 2016, dated 2022).

Numbered stars: 1 amine (or outer) side, 2 acyl side, 3 side chain; on linkers, the order of the positions; unused ones are H or OH. Bridge positions count the residues as written; N and C are the ends. Square brackets hold non-standard residues; d marks the D form. Peptide text beside a SMILES is read from it. * marks the point of attachment. C20 diacid = O=C(O)CCCCCCCCCCCCCCCCCCC(=O)*; γGlu = O=C(O)[C@H](CCC(=O)[*:2])N[*:1]; Hyp = O=C(O)[C@@H]1C[C@@H](O)CN1; NMeI = CC[C@H](C)[C@H](NC)C(=O)O; Aad = N[C@@H](CCCC(=O)O)C(=O)O; Orn = NCCC[C@H](N)C(=O)O; Dab = NCC[C@H](N)C(=O)O; Sar = CNCC(=O)O

The EC50 is the concentration that produces a half-maximal response.

For data set [1], the target named is T1, recombinant human calcitonin receptor (hCT-R) (Homo sapiens, UniProt P30988).
T1 construct: host or cells: human astrocytoma cell line 1321N1
T1 sequence (P30988 25-474): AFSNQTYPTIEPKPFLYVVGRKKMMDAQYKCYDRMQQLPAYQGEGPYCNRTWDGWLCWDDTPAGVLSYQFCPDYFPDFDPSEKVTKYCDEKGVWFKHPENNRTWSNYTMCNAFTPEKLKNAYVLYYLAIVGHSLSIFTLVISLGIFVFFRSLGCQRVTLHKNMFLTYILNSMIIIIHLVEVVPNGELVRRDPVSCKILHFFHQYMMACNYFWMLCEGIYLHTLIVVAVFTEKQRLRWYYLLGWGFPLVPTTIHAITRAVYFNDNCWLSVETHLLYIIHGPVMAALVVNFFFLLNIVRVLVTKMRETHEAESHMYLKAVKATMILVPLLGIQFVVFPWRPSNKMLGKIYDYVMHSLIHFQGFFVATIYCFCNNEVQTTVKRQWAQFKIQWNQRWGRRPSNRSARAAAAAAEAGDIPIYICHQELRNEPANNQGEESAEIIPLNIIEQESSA
The experiment in a line: hCT-R cAMP assay (AlphaScreen) in 1321N1 cells. Format: cell-based. As to conditions: cAMP formation, 45 min stimulation. The procedure, abridged:
(§1)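 1321N1 astrocytoma cells expressing recombinant human calcitonin receptor alone or with RAMP3 (AMY3) stimulated 45 min at room temperature with peptide in IBMX-containing buffer. cAMP quantified by AlphaScreen after 1 h bead incubation; EC50 fitted from at least 7 concentrations.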
(In general: Changes in cAMP serve as a functional read-out for many G protein-coupled receptors.)

Data set [2] is described as follows: Effect on acute food intake and body weight in normal Sprague Dawley rats. The class given is in vivo, Sprague Dawley (SD) rats. Particulars: Dose: 30 nmol/kg sc, vehicle-corrected.
Data set [3] is described as follows: Assessment of chemical stability in 40 mM buffers at 40° C. (RP-HPLC). The class given is physicochemical. As to conditions: 1 mg/mL. The procedure, abridged:
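Peptides at 1 mg/mL in 40 mM acetate pH 4 or phosphate pH 6 and 7 were held at 40° C for 3 and 14 days. Main-peak area-% by C8 RP-HPLC, UV 220 nm; % degradation = change in main-peak area-% versus t=0.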

The nature of data set [4]: Assessment of physical stability: fibril formation by Thioflavin T fluorescence. Format: physicochemical. Set-up: key: FND = fibrillation not detected; FD = fibrillation detected. Particulars: 1 mg/mL peptide. The procedure, abridged: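 Test peptide at 1 mg/mL with 40 μM ThT in 50 mM phosphate pH 7.0, 50 mM histidine pH 7.0, or 50 mM acetate pH 4.0, in triplicate. Fluorescence read every 10 min after 300 s agitation for 96 hours at 40° C; significant intensity rise scored as fibrillation detected (FD).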

The nature of data set [5]: Pharmacokinetic (PK) profiling in rats. Particulars: male, Sprague Dawley, plasma; rat, single sc bolus 30 nmol/kg; read-out: in vivo half life t1/2 (plasma terminal elimination half-life) (converted). The method, then:
Sprague Dawley male rats were given a single subcutaneous (sc) bolus of each peptide to be tested, as specified below.
30 nmol/kg doses of compound were administered. Blood samples were drawn from the tail vein prior to dosing and at 24 and 96 hours after dosing. The rats were euthanized immediately after the last blood sampling by concussion and cervical dislocation.
The dosing vehicle used for each test peptide was a mannitol-containing histidine buffer (pH 7.0). Plasma samples were analyzed after precipitation with ethanol by liquid chromatography mass spectrometry (LC-MS/MS). Mean plasma concentrations were used for calculation of the pharmacokinetic parameters.
Plasma terminal elimination half-life (t1/2) was determined as In(2)/λz, where λz is the magnitude of the slope of the log linear regression of the log concentration versus time profile during the terminal phase.

The target in data set [6] is T2, recombinant human amylin 3 receptor (hAMYR3) (Homo sapiens, UniProt O60896+P30988).
T2 construct: host or cells: human astrocytoma cell line 1321N1
T2 sequence (P30988 25-474): T1 sequence (P30988 25-474)
T2 sequence (O60896 24-148 partner): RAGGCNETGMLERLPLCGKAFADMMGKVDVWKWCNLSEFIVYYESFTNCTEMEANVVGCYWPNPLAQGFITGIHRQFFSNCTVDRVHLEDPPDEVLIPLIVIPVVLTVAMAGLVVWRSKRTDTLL
Kind of data set: hAMYR3 cAMP assay (AlphaScreen) in 1321N1 cells. The class given is cell-based. Particulars: cAMP formation, 45 min stimulation. Put shortly:
as §1

A short description of data set [7]: Chemical stability, alternative analysis in MilliQ water with pH adjusted, 40° C. (RP-HPLC). The class given is physicochemical. As to conditions: for % degradation after 8 days at 40° C. pH4: pH adjusted to 4.0, 8 days; for % degradation after 8 days at 40° C. pH7.5: pH adjusted to 7.5, 8 days; for % degradation after 8 days at 40° C. pH9: pH adjusted to 9.0, 8 days. The method, then:
In an alternative analysis, peptides were dissolved in MilliQ water and pH adjusted to 4.0, 7.5 or 9.0. Samples were placed in glass vials and incubated at 40° C. The samples were analyzed by RP-HPLC on a C8 column with gradient elution using a trifluoroacetic acid/acetonitrile/water eluent system. The area-percentage (area-%) of the main peak was determined by UV spectroscopy at 220 nm at each sampling time point.
The % degradation was calculated by subtracting the […].
The results of the chemical stability assessment after 8 days of incubation time are summarized as % degradation in Table 3 (below).

`CC[C@H](C)[C@@H](C(=O)N[C@@H](CC(C)C)C(=O)N[C@@H](CO)C(=O)N[C@@H](CO)C(=O)N[C@H](C(=O)N[C@@H](CCC(=O)O)C(=O)N[C@H](C(=O)NCC(=O)N[C@@H](CO)C(=O)N[C@@H](CC(N)=O)C(=O)N[C@H](C(=O)N1C[C@H](O)C[C@H]1C(N)=O)[C@@H](C)O)C(C)C)[C@@H](C)O)N(C)C(=O)[C@H](C)NC(=O)CN(C)C(=O)[C@H](Cc1ccccc1)NC(=O)[C@H](CO)NC(=O)[C@H](CO)NC(=O)[C@H](CCCNC(=N)N)NC(=O)[C@H](CCC(N)=O)NC(=O)[C@H](CC(C)C)NC(=O)[C@H](Cc1ccccc1)NC(=O)[C@H](CCCC(=O)O)NC(=O)[C@H](C)NC(=O)[C@H](CC(C)C)NC(=O)[C@H](CCCNC(=N)N)NC(=O)[C@H](CCC(=O)O)NC(=O)[C@@H](NC(=O)[C@H](C)NC(=O)[C@@H]1CCCNC(=O)C[C@H](NC(=O)[C@H](CCCNC(=N)N)NC(=O)CC[C@H](NC(=O)CCCCCCCCCCCCCCCCCCC(=O)O)C(=O)O)C(=O)NCC(=O)N[C@@H]([C@@H](C)O)C(=O)N[C@@H](C)C(=O)N[C@@H]([C@@H](C)O)C(=O)N1)[C@@H](C)O` [Compound 20, [19CD]-isoGlu-RD()GTAT-Orn()-ATERLA-Aad-FLQRSSF-Gly(Me)-A-Ile(Me)-LSSTEVGSNT-Hyp-NH2] ({C20 diacid-γGlu}-RDGTAT[Orn]ATERLA[Aad]FLQRSSF[Sar]A[NMeI]LSSTEVGSNT[Hyp]-NH2; lactam 2-7): the EC50 in data set [1] was determined as 0.009 nM; in data set [6] it was 0.003 nM. Moreover, the “Body weight reduction in % at 48 h” value in data set [2] came to 7.8%. The “Food intake reduction in % at 48 h” value in data set [2] is reported as 49%. Also, the “% degradation after 72 h at 40° C. pH4 acetate” value in data set [3] (acetate buffer pH 4, 72 h) is reported as 1.0%. The “% degradation after 72 h at 40° C. pH6 phosphate” value in data set [3] (phosphate buffer pH 6, 72 h) is 1.3%. In data set [3] (phosphate buffer pH 6, 14 days), the “% degradation after 14 days at 40° C. pH6 phosphate” value is under 1%. For the same compound, the “% degradation after 72 h at 40° C. pH7 phosphate” value in data set [3] (phosphate buffer pH 7, 72 h) stood at 2.0%. In addition, the “% degradation after 14 days at 40° C. pH7 phosphate” value in data set [3] (phosphate buffer pH 7, 14 days) came out at 3.7%. Besides, the “Fibrillation (in buffer) pH4 acetate” value in data set [4] (50 mM acetate buffer pH 4.0, 96 hours at 40° C.) is “FD”. Moreover, the “Fibrillation (in buffer) pH7 histidine” value in data set [4] (50 mM histidine buffer pH 7.0, 96 hours at 40° C.) is given as “FND”. For the same compound, the “Fibrillation (in buffer) pH7 phosphate” value in data set [4] (50 mM phosphate buffer pH 7.0, 96 hours at 40° C.) is “FND”. Besides, the half-life in data set [5] is 31.1 h.
Turning to `CC[C@H](C)[C@@H](C(=O)N[C@@H](CC(C)C)C(=O)N[C@@H](CO)C(=O)N[C@@H](CO)C(=O)N[C@H](C(=O)N[C@@H](CCC(=O)O)C(=O)N[C@H](C(=O)NCC(=O)N[C@@H](CO)C(=O)N[C@@H](CC(N)=O)C(=O)N[C@H](C(=O)N1C[C@H](O)C[C@H]1C(N)=O)[C@@H](C)O)C(C)C)[C@@H](C)O)N(C)C(=O)[C@H](C)NC(=O)CN(C)C(=O)[C@H](Cc1ccccc1)NC(=O)[C@H](CO)NC(=O)[C@H](CO)NC(=O)[C@H](CCCNC(=N)N)NC(=O)[C@H](CCC(N)=O)NC(=O)[C@H](CC(C)C)NC(=O)[C@H](Cc1ccccc1)NC(=O)[C@H](Cc1c[nH]cn1)NC(=O)[C@H](C)NC(=O)[C@H](CC(C)C)NC(=O)[C@H](CCCNC(=N)N)NC(=O)[C@H](CCC(=O)O)NC(=O)[C@@H](NC(=O)[C@H](C)NC(=O)[C@@H]1CCNC(=O)CC[C@H](NC(=O)[C@H](CCCNC(=N)N)NC(=O)CC[C@H](NC(=O)CCCCCCCCCCCCCCCCCCC(=O)O)C(=O)O)C(=O)NCC(=O)N[C@@H]([C@@H](C)O)C(=O)N[C@@H](C)C(=O)N[C@@H]([C@@H](C)O)C(=O)N1)[C@@H](C)O` [Compound 51, [19CD]-isoGlu-RE()GTAT-Dab()-ATERLAHFLQRSSF-Gly(Me)-A-Ile(Me)-LSSTEVGSNT-Hyp-NH2] ({C20 diacid-γGlu}-REGTAT[Dab]ATERLAHFLQRSSF[Sar]A[NMeI]LSSTEVGSNT[Hyp]-NH2; lactam 2-7), in data set [7], the “% degradation after 8 days at 40° C. pH4” value was found to be 3.1%, the “% degradation after 8 days at 40° C. pH7.5” value is recorded as 4.6% and the “% degradation after 8 days at 40° C. pH9” value turned out to be 4.6%. For the same compound, in data set [1], the EC50 turned out to be 0.861 nM. Moreover, the EC50 in data set [6] stood at 0.306 nM.
For the compound `CC[C@H](C)[C@@H](C(=O)N[C@@H](CC(C)C)C(=O)N[C@@H](CO)C(=O)N[C@@H](CO)C(=O)N[C@H](C(=O)N[C@@H](CCC(=O)O)C(=O)N[C@H](C(=O)NCC(=O)N[C@@H](CO)C(=O)N[C@@H](CC(N)=O)C(=O)N[C@H](C(=O)N1C[C@H](O)C[C@H]1C(N)=O)[C@@H](C)O)C(C)C)[C@@H](C)O)N(C)C(=O)[C@H](C)NC(=O)CN(C)C(=O)[C@H](Cc1ccccc1)NC(=O)[C@H](CO)NC(=O)[C@H](CO)NC(=O)[C@H](CCCNC(=N)N)NC(=O)[C@H](CCC(N)=O)NC(=O)[C@H](CC(C)C)NC(=O)[C@H](Cc1ccccc1)NC(=O)[C@H](Cc1c[nH]cn1)NC(=O)[C@H](C)NC(=O)[C@H](CC(C)C)NC(=O)[C@H](CCCNC(=N)N)NC(=O)[C@H](CCC(=O)O)NC(=O)[C@@H](NC(=O)[C@H](C)NC(=O)[C@@H]1CCC(=O)NCC[C@H](NC(=O)[C@H](CCCNC(=N)N)NC(=O)CC[C@H](NC(=O)CCCCCCCCCCCCCCCCCCC(=O)O)C(=O)O)C(=O)NCC(=O)N[C@@H]([C@@H](C)O)C(=O)N[C@@H](C)C(=O)N[C@@H]([C@@H](C)O)C(=O)N1)[C@@H](C)O` [Compound 49, [19CD]-isoGlu-R-Dab()-GTATE()ATERLAHFLQRSSF-Gly(Me)-A-Ile(Me)-LSSTEVGSNT-Hyp-NH2] ({C20 diacid-γGlu}-R[Dab]GTATEATERLAHFLQRSSF[Sar]A[NMeI]LSSTEVGSNT[Hyp]-NH2; lactam 2-7), in data set [7], the “% degradation after 8 days at 40° C. pH4” value stood at 1.7%, the “% degradation after 8 days at 40° C. pH7.5” value amounted to 2.1% and the “% degradation after 8 days at 40° C. pH9” value is 3.0%. The half-maximal effective concentration (EC50) in data set [1] is 1.04 nM. The EC50 in data set [6] was found to be 0.442 nM.
